Test results: patent publication US20240358822A1, “ALLERGY TREATMENT” (ENA RESPIRATORY PTY LTD, priority 2021, published 2024)

Legend:
Assay type in all cases: cell-based, human
[1] = tested on: PBMC from grass pollen allergic patients; assay: IL-10 producing monocytes after 24 hours PBMC culture, Flow Cytometry
Experimental: FIG. 12. […] PBMC from grass pollen allergic patients were cultured for 24 hours with or without allergen (Phlp at 10 μg/mL) and with or without a range of concentrations of INNA-001 or Pam2CSK4 (0.3, 3 and 10 μg/mL). At 24 hours the cells were harvested, washed and stained for anti-human CD14, CD16 and IL-10. Analysis was performed by Flow Cytometry. A) Flow Cytometry representative plots (N=3) for percentage of IL-10-producing subpopulation of non-classical (CD14^low CD16^+) monocytes after treatment with […] of TLR2 agonists (INNA-001 or Pam2CSK4) in the presence of Phlp. B) Quantification (N=12) of IL-10 producing non-classical (CD14^low CD16^+) and C) Quantification (N=12) of IL-10 producing classical (CD14^highCD16^−) monocytes. All data shown are mean±SEM. Graphs represent changes from baseline (untreated). Statistical analysis was performed using ANOVA with Dunn's multiple comparisons test for within-group comparisons. Mann-Whitney U test was performed for between-group comparisons. Statistical significance in the +Phlp group: *p<0.05, **p<0.01, ***p<0.001.
FIG. 13. […] PBMC from grass pollen allergic patients (N=3) were cultured for 24 hours with or without allergen (Phlp at 10 μg/mL) and with or without a range of concentrations of INNA-001, INNA-003 or INNA-006 (0.3, 3, 10 and 30 μg/ml). At 24 hours the cells were harvested, washed and stained for anti-human CD14, CD16 and IL-10. Analysis was performed by Flow Cytometry. All data shown are mean±SEM.
To examine it, PBMC from patients with allergy to Timothy grass pollen (Phleum pratense) were cultured with INNA-001 or control TLR2 agonist compounds, in the presence or absence of allergen, for 24 hours. At 24 hours the cells were harvested, washed and stained for IL-10 and the monocyte markers CD16 and CD14, using relevant anti-human antibodies. Analysis of the monocyte populations (classical and non-classical monocytes) was performed by Flow Cytometry. Lymphoid cells were excluded using antibodies against lineage markers CD3, CD4, CD15, CD19, CD56.

[2] = tested on: PBMC from grass pollen allergic patients; assay: CD4+ T regulatory cell induction in PBMC, 6 days, Flow Cytometry / FlowSOM
Experimental: FIG. 14. […] PBMC from grass pollen allergic patients were cultured for 6 days with or without allergen (Phlp at 10 μg/mL) and with or without a range of concentrations of INNA-001 or Pam2CSK4 (0.3, 3 and […]). At day 6 the cells were harvested, washed and stained for anti-human CD4, CD25, CD127 and Foxp3. Analysis was performed by Flow Cytometry. All data shown are mean±SEM. Graphs represent changes from baseline (untreated). Statistical analysis was performed using ANOVA with Dunn's multiple comparisons test for within-group comparisons. Mann-Whitney U test was performed for between-group comparisons. Statistical significance in the +Phlp group: *p<0.05, **p<0.01, ***p<0.001.
FIG. 15. […] PBMC from grass pollen allergic patients were cultured for 6 days with or without allergen (Phlp at 10 μg/mL) and with or without a range of concentrations of INNA-001 or Pam2CSK4 (0.3, 3 and 10 μg/ml). At day 6 the cells were harvested, washed and stained for anti-human CD4, CD25, CD127, Foxp3 and CD45RO. Analysis was performed by Flow Cytometry. All data shown are mean±SEM. Graphs represent changes from baseline (untreated) (A) naive FoxP3^+CD25^+CD127^−CD4^+CD45RO^− cells, and (B) memory FoxP3^+CD25^+CD127^−CD4^+CD45RO^+ cells. Statistical analysis was performed using ANOVA with Dunn's multiple comparisons test for within-group comparisons. Mann-Whitney U test was performed for between-group comparisons. Statistical significance in the +Phlp group: *p<0.05, **p<0.01, ***p<0.001.
FIG. 16. […] PBMC from grass pollen allergic patients (N=3 for INNA=003 & INNA-006, N=7 for INNA-001 & Pam2CSK4) were cultured for 6 days with or without allergen (Phlp at 10 μg/mL) and with or without a range of concentrations of INNA-001, INNA-003, INNA-006 or Pam2CSK4 (0.3, 3 and 10 μg/mL). At day 6 the cells were harvested, washed and stained for anti-human CD4, CD25, CD127, Foxp3 and CD45RO. Analysis was performed by Flow Cytometry. All data shown are mean±SEM.
FIG. 17. […] PBMC from grass pollen allergic patients were cultured for 6 days with allergen (Phlp at 10 μg/mL) and with or without INNA-001 or Pam2CSK4 (3 μg/mL). At 6 days the cells were harvested, washed and stained for anti-human Foxp3, CD4, CD25, CD45RO, CD127, CTLA4 and SABT1. Analysis was performed by Flow Cytometry. The data were further analysed using unbiased FlowSOM technique. Foxp3^+ T regulatory cell metacluster identification following treatment with INNA-001 A) in the presence of Phlp (N=3) or B) absence of Phlp (N=3). C) Heatmap display of the marker expression profile of the identified metaclusters (N=3). D) Quantification of population abundance of the metaclusters 3, 5 and 9 following INNA-001 and Pam2CSK4 treatment in the presence of Phlp (N=3). […]

[3] = tested on: PBMC from grass pollen allergic patients; assay: Expansion of Th2 cell phenotypes on allergen stimulation, Flow Cytometry; conditions: in the presence of allergen; 6 days
Experimental: FIG. 3. Treatment with INNA-001 suppresses the expansion of pro-allergic Th2 cell phenotypes in response to allergen stimulation. PBMC from grass pollen allergic patients (N=12) were cultured for 6 days with or without allergen (Phlp at 10 μg/mL) and with or without a range of concentrations of INNA-001. After 6 days, the cells were harvested, washed and activated with phorbol 12-myristate 13-acetate (25 ng/mL) and ionomycin (1 μg/mL) for 5 hours. Brefeldin A (10 μg/mL) was added for the final 4 hours of stimulation. Subsequently the cells were washed and stained for anti-human CD4, CD27, CRTH2, CD49d, CD161, IL-13 and IL-4. Analysis was performed by Flow Cytometry. Proliferation of cells was measured using CellTrace violet. All data shown are mean±SEM. Graphs represent normalised changes from baseline (untreated). Statistical analysis was performed using ANOVA with Dunn's multiple comparisons test for within-group comparisons (*p<0.05, **p<0.01, ***p<0.001 for the +Phlp group).
FIG. 4. […]
PBMC from patients with allergy to Timothy grass pollen (Phleum pratense) were cultured for 6 days in the presence or absence of allergen and INNA-001 or control compounds. Allergen-induced proliferation and cytokine production were assessed and the phenotype of proliferating allergen-stimulated T cells was determined.

[4] = tested on: PBMC from grass pollen allergic patients; assay: Kinetics of IL-10 production by PBMC, ELISA
Experimental: (§1) FIG. 9. […] PBMC from grass pollen allergic patients (N=3) were cultured for 24 hours with or without a range of allergen concentrations (Phlp at […]), in the presence or absence of a range of INNA-001, INNA-006 or Pam2CSK4 concentrations (from 0.01 to 10 μg/mL). The culture supernatants were harvested and the levels of IL-10 (A) and IL-6 (B) were measured by ELISA. All data shown are mean±SEM.
(§2) FIG. 10. […] PBMC from grass pollen allergic patients (N=3) were cultured for 24 hours, 72 hours or 6 days, with or without allergen (Phlp 10 mg/mL), in the presence or absence of a range of INNA-001, INNA-006 or Pam3CSK4 concentrations (0.3, 3, 10 and 30 μg/mL). The culture supernatants were harvested and the levels of IL-10 were measured by ELISA. All data shown are mean±SEM.
(§3) PBMC from patients with allergy to Timothy grass pollen (Phleum pratense) or cat (Fel d 1) were cultured for 24 hours, 72 hours or 6 days, in the presence or absence of allergen and INNA-001, INNA-006 or Pam3CSK4 (a TLR2 agonist known to induce IL-10 production) and the production of IL-10 and IL-6 (used as a control, TLR2-induced cytokine) was measured in the cell culture supernatants.

[5] = tested on: PBMC from cat allergic patients; assay: IL-10 production by PBMC of cat allergic patients, ELISA; conditions: 24 hours, 72 hours, 6 days; cat allergen Feld 1
Experimental: as §2, with “11.” for “10.”, “cat” for “grass pollen”, “(Feld 1 0.1 or […]),” for “(Phlp 10 mg/mL),”, “Pam2CSK4” for “Pam3CSK4”, “Elisa.” for “ELISA. All data shown are mean±SEM.”
as §3

[6] = tested on: PBMC from grass pollen allergic patients; assay: IL-6 production by PBMC at 24 hours, ELISA
Experimental: as §1, §3

| Substance | number of IL-10+ non-classical CD14low/CD16+ monocytes ([1]; 24 hours) | numbers of IL-10+ classical CD14high/CD16- monocytes ([1]; 24 hours) | influence of allergen on IL-10+ classical monocytes ([1]; with versus without allergen) | memory FoxP3+CD25+CD127-CD4+CD45RO+ T regulatory cells [2] | naive FoxP3+CD25+CD127-CD4+CD45RO- T regulatory cells [2] | total number of CD4+CD25+CD127- regulatory T cells [2] | expansion of Foxp3+ T regulatory cell metaclusters MC3, MC5 and MC9 (FlowSOM) ([2]; 3 μg/mL) | number of proliferating IL-13 producing-Th2 (CD4+CD27-CRTH2+IL-13+) cells [3] | IL-10 generation at 24 hours ([4]; 24 hours, presence or absence of allergen) | IL-10 levels at 72 hours and 6 days ([4]; 72 hours, 6 days) | influence of parallel allergen stimulation on IL-10 production ([4]; with versus without allergen) | IL-10 upregulation in PBMC of cat allergic subjects [5] | IL-6 generation at 24 hours [6] | influence of parallel allergen stimulation on IL-6 production ([6]; with versus without allergen) |
| --- | --- | --- | --- | --- | --- | --- | --- | --- | --- | --- | --- | --- | --- | --- |
| Pam2CSK4 | increase, although slightly less pronounced | lower increase | independent of the presence of allergen | Analogous | Analogous | Analogous results | the same metaclusters were also found prominent | also reduced the number of proliferating Th2 (CD4+CD27−CRTH2+IL-13+) cells, but to a lesser degree than INNA-001 | – | – | – | – | – | – |
| Pam3CSK4 | – | – | – | – | – | – | – | – | rapid, dose-dependent generation of IL-10 | remained high, but with declining levels | did not appear to considerably influence | stimulated dose-dependent upregulation of IL-10 | strong IL-6 generation | did not appear to influence |
